Data reported in BindingDB's records for doi:10.1021/ml4000595 (Temple University, 2013).

What was measured:
[1] = target: T1, Cytochrome P450 11B2, mitochondrial (Homo sapiens, UniProt P19099); test: Inhibition of human CYP11B2 expressed in hamster V79MZ cells using [1,2-3H]11-deoxycorticosterone as substrate preincubated for 60 mins prior to substrate addition measured after 50 mins by HPLC analysis
T1 sequence (P19099 whole entry): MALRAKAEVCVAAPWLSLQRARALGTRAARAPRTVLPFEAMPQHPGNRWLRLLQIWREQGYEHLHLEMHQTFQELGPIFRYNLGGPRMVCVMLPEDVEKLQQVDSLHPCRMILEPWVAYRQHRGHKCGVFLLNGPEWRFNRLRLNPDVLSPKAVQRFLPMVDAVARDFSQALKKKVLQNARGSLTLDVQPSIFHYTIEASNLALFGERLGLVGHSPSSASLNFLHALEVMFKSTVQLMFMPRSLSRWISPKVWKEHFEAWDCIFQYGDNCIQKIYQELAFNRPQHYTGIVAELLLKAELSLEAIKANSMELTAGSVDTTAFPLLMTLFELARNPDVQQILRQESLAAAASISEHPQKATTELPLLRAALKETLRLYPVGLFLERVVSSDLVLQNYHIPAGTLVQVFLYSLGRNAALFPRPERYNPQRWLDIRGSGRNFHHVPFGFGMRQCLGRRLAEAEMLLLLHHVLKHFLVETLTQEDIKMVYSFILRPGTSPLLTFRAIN

[2] = target: T2, Cytochrome P450 11B1, mitochondrial (Homo sapiens, UniProt P15538); test: Inhibition of human CYP11B1 expressed in hamster V79MZ cells using [1,2-3H]11-deoxycorticosterone as substrate preincubated for 60 mins prior to substrate addition measured after 25 mins by HPLC analysis
T2 sequence (P15538 whole entry): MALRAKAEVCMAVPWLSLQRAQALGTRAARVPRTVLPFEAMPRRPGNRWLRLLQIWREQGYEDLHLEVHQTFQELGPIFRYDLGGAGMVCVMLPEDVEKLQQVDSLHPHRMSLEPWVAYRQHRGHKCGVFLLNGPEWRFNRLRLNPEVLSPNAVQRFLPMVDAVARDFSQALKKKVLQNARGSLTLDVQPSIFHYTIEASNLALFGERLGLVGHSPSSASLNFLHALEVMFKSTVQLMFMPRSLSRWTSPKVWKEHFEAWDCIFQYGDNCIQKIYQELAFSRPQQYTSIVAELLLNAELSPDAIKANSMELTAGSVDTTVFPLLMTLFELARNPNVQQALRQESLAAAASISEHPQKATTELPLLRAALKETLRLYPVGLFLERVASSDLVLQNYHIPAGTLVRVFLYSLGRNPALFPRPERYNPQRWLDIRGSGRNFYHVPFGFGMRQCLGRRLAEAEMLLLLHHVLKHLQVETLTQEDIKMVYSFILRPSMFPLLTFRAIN

| SMILES | IC50 [1] [nM] | IC50 [2] [nM] |
| --- | --- | --- |
| c1ccc2c(-c3ccc(Cn4ccnc4)cn3)cccc2c1 | 2080 | 42 |
| c1csc(-c2ncccc2Cn2ccnc2)c1 | 251 | 16 |
| c1ccc2c(-c3ccc(Cn4ccnc4)cn3)csc2c1 | 1160 | 40 |
| Oc1ccc(-c2ccc(Cn3ccnc3)cn2)cc1F | 237 | 17 |
| Brc1ncccc1Cn1ccnc1 | 911 | 61 |
| Nc1ccccc1-c1ccc(Cn2ccnc2)cn1 | 2110 | 101 |
| Nc1cccc(-c2ccc(Cn3ccnc3)cn2)c1 | 3410 | 110 |
| Nc1ccc(-c2ccc(Cn3ccnc3)cn2)cc1 | 528 | 106 |
